# Tests used:
# Experiment in all cases: relative viability (nuclei count vs DMSO), 5 days (fraction); higher = more cells survive
# [1] = compound: COc1cc2nc(N3CCCN(C)CC3)nc(NC3CCN(Cc4ccccc4)CC3)c2cc1OC + Cc1cc(Nc2cc(N3CCN(C)CC3)nc(Sc3ccc(NC(=O)C4CC4)cc3)n2)n[nH]1 [Tozasertib] (partner 0.1 µM)
# Summary of the method: (§1)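 Relative viability was taken as the ratio of nuclei in treated wells to nuclei in vehicle wells. Lung cancer cell lines in 1536-well plates received compounds by pin tool one day after seeding, either one drug alone or a fixed anchor-drug dose plus five library-drug doses (not always all listed) in √10 steps. Nuclei were counted on 4× images after 5 days of treatment, and values are medians of duplicate plates.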
# [2] = compound: COc1cc2nc(N3CCCN(C)CC3)nc(NC3CCN(Cc4ccccc4)CC3)c2cc1OC + NC(=O)Nc1cc(-c2cccc(F)c2)sc1C(=O)N[C@H]1CCCNC1 [AZD7762] (partner 0.2 µM)
# Summary of the method: as §1
# [3] = compound: COc1cc2nc(N3CCCN(C)CC3)nc(NC3CCN(Cc4ccccc4)CC3)c2cc1OC + Nc1nc2[nH]cc(CCc3ccc(C(=O)N[C@@H](CCC(=O)O)C(=O)O)cc3)c2c(=O)[nH]1 [Pemetrexed] (partner 0.2 µM)
# Summary of the method: as §1
# [4] = compound: Cc1cc([C@@H](C)Nc2ccccc2C(=O)O)c2nc(N3CCOCC3)cc(=O)n2c1 [AZD6482] + N=C(N)NC(=N)NCCc1ccccc1 [Phenformin] (partner 250 µM)
# Summary of the method: as §1
cell line,measurement,setting,value
LCLC-103H,relative viability,[1]; first compound 0.2 µM,0.396
same,relative viability,[1]; first compound 0.6325 µM,0.494
same,relative viability,[1]; first compound 2 µM,0.462
same,relative viability,[1]; first compound 6.325 µM,0.453
same,relative viability,[2]; first compound 0.2 µM,0.814
same,relative viability,[2]; first compound 0.6325 µM,0.719
same,relative viability,[2]; first compound 2 µM,0.903
same,relative viability,[2]; first compound 6.325 µM,0.832
same,relative viability,[3]; first compound 0.2 µM,0.495
same,relative viability,[3]; first compound 0.6325 µM,0.455
same,relative viability,[3]; first compound 2 µM,0.443
same,relative viability,[3]; first compound 6.325 µM,0.47
same,relative viability,[4]; first compound 0.08 µM,0.255
same,relative viability,[4]; first compound 0.253 µM,0.274
same,relative viability,[4]; first compound 0.8 µM,0.342
same,relative viability,[4]; first compound 2.53 µM,0.251
same,relative viability,[4]; first compound 8 µM,0.215
LK-2,relative viability,[1]; first compound 0.2 µM,0.199
same,relative viability,[1]; first compound 0.6325 µM,0.178
same,relative viability,[1]; first compound 2 µM,0.187
same,relative viability,[1]; first compound 6.325 µM,0.19
same,relative viability,[2]; first compound 0.2 µM,0.463
same,relative viability,[2]; first compound 0.6325 µM,0.487
same,relative viability,[2]; first compound 2 µM,0.506
same,relative viability,[2]; first compound 6.325 µM,0.249
same,relative viability,[3]; first compound 0.2 µM,0.311
same,relative viability,[3]; first compound 0.6325 µM,0.276
same,relative viability,[3]; first compound 2 µM,0.296
same,relative viability,[3]; first compound 6.325 µM,0.273
same,relative viability,[4]; first compound 0.08 µM,0.405
same,relative viability,[4]; first compound 0.253 µM,0.382
same,relative viability,[4]; first compound 0.8 µM,0.257
same,relative viability,[4]; first compound 2.53 µM,0.338
same,relative viability,[4]; first compound 8 µM,0.184
LOU-NH91,relative viability,[1]; first compound 0.2 µM,0.67
same,relative viability,[1]; first compound 0.6325 µM,0.703
same,relative viability,[1]; first compound 2 µM,0.649
same,relative viability,[1]; first compound 6.325 µM,0.769
same,relative viability,[2]; first compound 0.2 µM,0.727
same,relative viability,[2]; first compound 0.6325 µM,0.85
same,relative viability,[2]; first compound 2 µM,0.759
same,relative viability,[2]; first compound 6.325 µM,0.793
same,relative viability,[3]; first compound 0.2 µM,0.411
same,relative viability,[3]; first compound 0.6325 µM,0.393
same,relative viability,[3]; first compound 2 µM,0.401
same,relative viability,[3]; first compound 6.325 µM,0.398
same,relative viability,[4]; first compound 0.08 µM,0.546
same,relative viability,[4]; first compound 0.253 µM,0.718
same,relative viability,[4]; first compound 0.8 µM,0.737
same,relative viability,[4]; first compound 2.53 µM,0.46
same,relative viability,[4]; first compound 8 µM,0.556
LU99A,relative viability,[1]; first compound 0.2 µM,0.238
same,relative viability,[1]; first compound 0.6325 µM,0.255
same,relative viability,[1]; first compound 2 µM,0.283
same,relative viability,[1]; first compound 6.325 µM,0.262
same,relative viability,[2]; first compound 0.2 µM,0.383
same,relative viability,[2]; first compound 0.6325 µM,0.314
same,relative viability,[2]; first compound 2 µM,0.301
same,relative viability,[2]; first compound 6.325 µM,0.285
same,relative viability,[3]; first compound 0.2 µM,0.17
same,relative viability,[3]; first compound 0.6325 µM,0.185
same,relative viability,[3]; first compound 2 µM,0.177
same,relative viability,[3]; first compound 6.325 µM,0.187
same,relative viability,[4]; first compound 0.08 µM,0.903
same,relative viability,[4]; first compound 0.253 µM,0.848
same,relative viability,[4]; first compound 0.8 µM,0.791
same,relative viability,[4]; first compound 2.53 µM,0.691
same,relative viability,[4]; first compound 8 µM,0.813
LXF-289,relative viability,[1]; first compound 0.2 µM,0.184
same,relative viability,[1]; first compound 0.6325 µM,0.195
same,relative viability,[1]; first compound 2 µM,0.205
same,relative viability,[1]; first compound 6.325 µM,0.211
same,relative viability,[2]; first compound 0.2 µM,1.04
same,relative viability,[2]; first compound 0.6325 µM,1.05
same,relative viability,[2]; first compound 2 µM,1.12
same,relative viability,[2]; first compound 6.325 µM,1.11
same,relative viability,[3]; first compound 0.2 µM,0.924
same,relative viability,[3]; first compound 0.6325 µM,0.879
same,relative viability,[3]; first compound 2 µM,0.999
same,relative viability,[3]; first compound 6.325 µM,0.828
same,relative viability,[4]; first compound 0.08 µM,0.491
same,relative viability,[4]; first compound 0.253 µM,0.471
same,relative viability,[4]; first compound 0.8 µM,0.51
same,relative viability,[4]; first compound 2.53 µM,0.452
same,relative viability,[4]; first compound 8 µM,0.307
NCI-H23,relative viability,[1]; first compound 0.2 µM,0.423
same,relative viability,[1]; first compound 0.6325 µM,0.385
same,relative viability,[1]; first compound 2 µM,0.481
same,relative viability,[1]; first compound 6.325 µM,0.337
same,relative viability,[2]; first compound 0.2 µM,0.198
same,relative viability,[2]; first compound 0.6325 µM,0.322
same,relative viability,[2]; first compound 2 µM,0.262
same,relative viability,[2]; first compound 6.325 µM,0.174
same,relative viability,[3]; first compound 0.2 µM,0.66
same,relative viability,[3]; first compound 0.6325 µM,0.695
same,relative viability,[3]; first compound 2 µM,0.918
same,relative viability,[3]; first compound 6.325 µM,0.703
same,relative viability,[4]; first compound 0.08 µM,0.789
same,relative viability,[4]; first compound 0.253 µM,0.785
same,relative viability,[4]; first compound 0.8 µM,0.84
same,relative viability,[4]; first compound 2.53 µM,0.628
same,relative viability,[4]; first compound 8 µM,0.658
NCI-H322M,relative viability,[1]; first compound 0.2 µM,0.481
same,relative viability,[1]; first compound 0.6325 µM,0.451
same,relative viability,[1]; first compound 2 µM,0.417
same,relative viability,[1]; first compound 6.325 µM,0.437
same,relative viability,[2]; first compound 0.2 µM,0.48
same,relative viability,[2]; first compound 0.6325 µM,0.665
same,relative viability,[2]; first compound 2 µM,0.444
same,relative viability,[2]; first compound 6.325 µM,0.549
same,relative viability,[3]; first compound 0.2 µM,0.606
same,relative viability,[3]; first compound 0.6325 µM,0.623
same,relative viability,[3]; first compound 2 µM,0.581
same,relative viability,[3]; first compound 6.325 µM,0.584
same,relative viability,[4]; first compound 0.08 µM,0.705
same,relative viability,[4]; first compound 0.253 µM,0.673
same,relative viability,[4]; first compound 0.8 µM,0.712
same,relative viability,[4]; first compound 2.53 µM,0.414
same,relative viability,[4]; first compound 8 µM,0.537
NCI-H358,relative viability,[1]; first compound 0.2 µM,0.108
same,relative viability,[1]; first compound 0.6325 µM,0.111
same,relative viability,[1]; first compound 2 µM,0.123
same,relative viability,[1]; first compound 6.325 µM,0.126
same,relative viability,[2]; first compound 0.2 µM,0.518
same,relative viability,[2]; first compound 0.6325 µM,0.681
same,relative viability,[2]; first compound 2 µM,0.48
same,relative viability,[2]; first compound 6.325 µM,0.498
same,relative viability,[3]; first compound 0.2 µM,0.174
same,relative viability,[3]; first compound 0.6325 µM,0.168
same,relative viability,[3]; first compound 2 µM,0.17
same,relative viability,[3]; first compound 6.325 µM,0.173
same,relative viability,[4]; first compound 0.08 µM,0.305
same,relative viability,[4]; first compound 0.253 µM,0.323
same,relative viability,[4]; first compound 0.8 µM,0.317
same,relative viability,[4]; first compound 2.53 µM,0.163
same,relative viability,[4]; first compound 8 µM,0.233
NCI-H441,relative viability,[1]; first compound 0.2 µM,0.607
same,relative viability,[1]; first compound 0.6325 µM,0.623
same,relative viability,[1]; first compound 2 µM,0.581
same,relative viability,[1]; first compound 6.325 µM,0.69
same,relative viability,[2]; first compound 0.2 µM,1.09
same,relative viability,[2]; first compound 0.6325 µM,1.12
same,relative viability,[2]; first compound 2 µM,0.973
same,relative viability,[2]; first compound 6.325 µM,1.12
same,relative viability,[3]; first compound 0.2 µM,0.256
same,relative viability,[3]; first compound 0.6325 µM,0.264
same,relative viability,[3]; first compound 2 µM,0.246
same,relative viability,[3]; first compound 6.325 µM,0.276
same,relative viability,[4]; first compound 0.08 µM,0.677
same,relative viability,[4]; first compound 0.253 µM,0.679
same,relative viability,[4]; first compound 0.8 µM,0.967
same,relative viability,[4]; first compound 8 µM,0.468
